Measurements reported in patent US20220401514A1, “ANTIMICROBIAL, BACTERIOPHAGE-DERIVED POLYPEPTIDES AND THEIR USE AGAINST GRAM-NEGATIVE AND ACID-FAST BACTERIA” (CONTRAFECT CORPORATION, priority 2019, published 2022).
Like-named read-outs stand apart in the source and are kept apart here.

How the values were obtained:
[1] = tested on: M. smegmatis; experiment: 45 hr MIC against M. smegmatis (NTM), Mueller Hinton broth; assay type: cell-based, Mycobacterium smegmatis
[2] = tested on: Klebsiella pneumoniae; assay type: cell-based; conditions: for MIC50 / MIC100 / MIC Range: K. pneumoniae isolates (n per peptide in table); for MIC: Klebsiella pneumoniae HM-44, CAA supplemented with human serum
Protocol: (§1) Determination of Minimal Inhibitory Concentrations (MIC).
(§2) Additional MIC testing was performed for several peptides against the ESKAPE pathogens Escherichia coli, Enterobacter cloacae, Klebsiella pneumoniae, and Acinetobacter baumannii, in CAA supplemented with human serum (Table D).

[3] = Stability assessment in 100% CAA; assay type: in vitro ADME; design: unit not given beside the values
Protocol: Stability was assessed after incubation in 100% human serum at 37° C. after 10 minutes, 1 hour, and 2 hours.
Stability assessment was further conducted in 100% CAA and rabbit serum using the same methodology discussed above.

[4] = tested on: S. maltophilia; experiment: MIC against S. maltophilia isolates; assay type: cell-based, Stenotrophomonas maltophilia; conditions: S. maltophilia isolates (n per peptide in table)
Protocol: as §1
In addition to the results discussed above in Example 3, further testing was conducted on several Chp peptides. MIC values were determined against different species, including P. aeruginosa, K. pneumoniae, A. baumannii, E. cloacae, E. coli, and S. maltophilia, and the results are presented below in Tables 40-45, wherein n=number of isolates tested for each species and MIC is measured as μg/mL.

[5] = tested on: M. intracellulare; experiment: 45 hr MIC against M. intracellulare (NTM); assay type: cell-based, Mycobacterium intracellulare; conditions: M. intracellulare (Cuttino and McCabe) Runyon ATCC 13950
[6] = tested on: M. kansasii Hauduroy ATCC 12478; experiment: 45 hr MIC against M. kansasii (NTM), Mueller Hinton broth; assay type: cell-based, Mycobacterium kansasii
[7] = tested on: M. scrofulaceum; experiment: 45 hr MIC against M. scrofulaceum (NTM); assay type: cell-based, Mycobacterium scrofulaceum; conditions: M. scrofulaceum Prissick and Masson ATCC 19981
[8] = tested on: Mycobacterium tuberculosis strains
Protocol: MIC values for various Chp peptides were determined using the CLSI method for broth microdilution in 96-well microtiter format.
Next, MIC values for various Chp peptides were determined using the CLSI method above for broth microdilution in 96-well microtiter format for two different Mycobacterium tuberculosis strains. The MIC was determined as explained above for the NTM strains.

[9] = tested on: Acinetobacter baumannii; experiment: microbe, parasite or virus in culture; assay type: cell-based; conditions: for MIC50 / MIC100 / MIC Range: A. baumannii isolates (n per peptide in table); for MIC: Acinetobacter baumannii ATCC BAA 747, CAA supplemented with human serum
[10] = tested on: Pseudomonas aeruginosa; experiment: microbe, parasite or virus in culture; assay type: cell-based; conditions: P. aeruginosa isolates (n per peptide in table)
[11] = tested on: Enterobacter cloacae; experiment: microbe, parasite or virus in culture; assay type: cell-based; conditions: for MIC: Enterobacter cloacae ATCC 13047, CAA supplemented with human serum
Protocol: as §1, §2

[12] = tested on: Escherichia coli; experiment: microbe, parasite or virus in culture; assay type: cell-based; conditions: for MIC50 / MIC100 / MIC Range: E. coli isolates (n per peptide in table); for MIC: Escherichia coli ATCC 25922, CAA supplemented with human serum
Protocol: as §1, §2

[13] = tested on: carbapenem-resistant bacterial strains; experiment: organism not typed; assay type: cell-based
Text: as §1

[14] = tested on: M. fortuitum; experiment: 45 hr MIC against M. fortuitum (NTM); assay type: cell-based, Mycobacterium fortuitum; conditions: M. fortuitum subsp. Fortuitum da Costa Cruz. ATCC 6841
[15] = tested on: carbapenem-resistant P. aeruginosa clinical isolate CFS-1292; experiment: MIC by modified CLSI broth microdilution against P. aeruginosa CFS-1292 (CAA, CAA + human serum); assay type: cell-based, Pseudomonas aeruginosa; conditions: for MIC (μg/mL) against CFS-1292 in 100% CAA (1st run/2nd run): 1st run or single value
[16] = tested on: M. avium; experiment: 45 hr MIC against M. avium (NTM); assay type: cell-based, Mycobacterium avium; conditions: M. avium Chester ATCC 700898
[17] = Mycobacterium tuberculosis (Zopf) Lehmann and Neumann ATCC 25177
[18] = Mycobacterium tuberculosis (Zopf) Lehmann and Neumann ATCC 35817
[19] = E. cloacae isolates (n per peptide in table)
[20] = carbapenem-resistant isolate PA19
[21] = carbapenem-resistant isolate PA20
[22] = carbapenem-resistant isolate PA21
[23] = carbapenem-resistant isolate PA22
[24] = carbapenem-resistant isolate PA23
[25] = carbapenem-resistant isolate PA24
[26] = carbapenem-resistant isolate WLC-452

Sequence	45 hr MIC ([1]; M. smegmatis MC^2 155, Run #1)	45 hr MIC ([1]; M. smegmatis MC^2 155, Run #2)	MIC50 [2]	MIC100 [2]	MIC Range [2]	MIC [2]	MIC (100% CAA) [3]	MIC50 [4]	MIC100 [4]	45 hr MIC [5]	45 hr MIC [6]	45 hr MIC [7]	MIC [8, 17]	MIC [8, 18]	MIC50 [9]	MIC100 [9]	MIC Range [9]	MIC [9]	MIC50 [10]	MIC100 [10]	further results
MSKKRSRMSRRRSKKLFSKTALRTKSVNTRPPMRGGFRF [Chp8]	4 µg/mL	8 µg/mL	4 µg/mL	8 µg/mL	2 to 8 µg/mL	4 µg/mL	0.5	>8 µg/mL	>8 µg/mL	4 µg/mL	4 µg/mL	4 µg/mL	32 µg/mL	8 µg/mL	0.5 µg/mL	1 µg/mL	0.25 to 2 µg/mL	2 µg/mL	8 µg/mL	>8 µg/mL	MIC50 [11, 19]: 2 µg/mL; MIC100 [11, 19]: 4 µg/mL; MIC Range [11, 19]: 1 to 8 µg/mL; MIC [11]: 16 µg/mL; MIC50 [12]: 2 µg/mL; MIC100 [12]: 4 µg/mL; MIC Range [12]: 0.5 to 4 µg/mL; MIC [12]: 0.5 µg/mL; MIC [13, 20]: 1 µg/mL; MIC [13, 21]: >8 µg/mL; MIC [13, 22]: >8 µg/mL; MIC [13, 23]: >8 µg/mL; MIC [13, 24]: >8 µg/mL; MIC [13, 25]: 8 µg/mL; MIC [13, 26]: 4 µg/mL; 45 hr MIC [14]: 2 µg/mL; MIC (μg/mL) against CFS-1292 in 100% CAA (1st run/2nd run) [15]: 0.5 µg/mL; MIC (μg/mL) against CFS-1292 in CAA + […] human serum ([15]; CAA + […] human serum): 2 µg/mL; 45 hr MIC [16]: 8 µg/mL
MSLRRHKLSRKASKRIFRKGASRTKTLNTRATPMRGGFRI [Chp9]	4 µg/mL	8 µg/mL	>8 µg/mL	>8 µg/mL	>8 µg/mL	1 µg/mL	2	>8 µg/mL	>8 µg/mL	4 µg/mL	8 µg/mL	8 µg/mL	32 µg/mL	16 µg/mL	2 µg/mL	2 µg/mL	0.5 to 2 µg/mL	4 µg/mL	>8 µg/mL	>8 µg/mL	MIC50 [11, 19]: 4 µg/mL; MIC100 [11, 19]: >8 µg/mL; MIC [11]: 32 µg/mL; MIC50 [12]: 2 µg/mL; MIC100 [12]: 8 µg/mL; MIC Range [12]: 0.5 to 8 µg/mL; MIC [12]: 1 µg/mL; MIC [13, 20]: 8 µg/mL; MIC [13, 21]: >8 µg/mL; MIC [13, 22]: >8 µg/mL; MIC [13, 23]: >8 µg/mL; MIC [13, 24]: >8 µg/mL; MIC [13, 25]: >8 µg/mL; MIC [13, 26]: 8 µg/mL; 45 hr MIC [14]: 4 µg/mL; MIC (μg/mL) against CFS-1292 in 100% CAA (1st run/2nd run) [15]: 8 µg/mL; 45 hr MIC [16]: >64 µg/mL
